From article PMC10303271, “Synthesis and Receptor Binding Studies of α5 GABAAR Selective Novel Imidazodiazepines Targeted for Psychiatric and Cognitive Disorders” (Molecules, 2023)

Legend:
Beta3 = target: T1, Beta3 (Homo sapiens, UniProt P13945); experiment: PDSP primary binding Beta3; details: 1.5 h; primary binding, 10,000 nM; last figure of the line = mean of the 4 before it; read-out: Beta3, PDSP raw data, mean
T1 construct: purchased NIMH Psychoactive Drug Screening Program (PDSP)
Description: (§1) To determine if any off-target receptor-binding effects are present, all the novel ligands were sent to the National Institute of Mental Health (NIMH), Psychoactive Drug Screening Program (PDSP). The ligands were screened over a panel of 47 receptors, ion channels, and transporters to determine any other possible interactions with […]. The hERG-binding was also determined. […] No binding of the test compounds to calcium channels was observed. […] It is necessary to screen the compounds for hERG-binding during the early process of drug discovery. The unintentional binding of many drugs to hERG can cause blockade of hERG K+ channels in the heart, which can cause many side effects including cardiac arrhythmias and sudden death. […] All of the α5 imidazodiazepines were tested for hERG-binding.
(§2) The NIMH PDSP assay protocol book [https://kidbdev.med.unc.edu/databases/PDSP%20Protocols%20II%202013-03-28.pdf accessed on 23 April 2023]. describes the protocols for primary and secondary radio-ligand binding assays. These assays were carried out in a final volume of 125 µL per well in the appropriate binding buffer.
(§3) The binding of a ligand to a receptor, ion channel, or transporter was determined in the […] of 10 µM of the appropriate reference compound. […] Plates were incubated in the dark for 90 min at rt, and the reactions were stopped by vacuum filtration onto 0.3% polyethyleneimine (PEI) soaked 96-well filter mats using a 96-well Filtermateharvester. This was followed by three washes with cold PBS buffer. Radioactivity was then counted on a Microbeta counter. Nonlinear regression was used to analyze the data with N = 6 replicates.

D1 = target: T2, D1 (Homo sapiens, UniProt P21728); experiment: PDSP primary binding D1; details: 1.5 h; primary binding, 10,000 nM; last figure of the line = mean of the 4 before it; read-out: D1, PDSP raw data, mean
T2 construct: purchased NIMH Psychoactive Drug Screening Program (PDSP)
Description: as §1, §2, §3

A1 = target: T3, A1 (Homo sapiens, UniProt P30542); experiment: PDSP primary binding A1; details: 1.5 h; primary binding, 10,000 nM; last figure of the line = mean of the 4 before it; read-out: A1, PDSP raw data, mean
T3 construct: purchased NIMH Psychoactive Drug Screening Program (PDSP)
T3 sequence (P30542 1-326): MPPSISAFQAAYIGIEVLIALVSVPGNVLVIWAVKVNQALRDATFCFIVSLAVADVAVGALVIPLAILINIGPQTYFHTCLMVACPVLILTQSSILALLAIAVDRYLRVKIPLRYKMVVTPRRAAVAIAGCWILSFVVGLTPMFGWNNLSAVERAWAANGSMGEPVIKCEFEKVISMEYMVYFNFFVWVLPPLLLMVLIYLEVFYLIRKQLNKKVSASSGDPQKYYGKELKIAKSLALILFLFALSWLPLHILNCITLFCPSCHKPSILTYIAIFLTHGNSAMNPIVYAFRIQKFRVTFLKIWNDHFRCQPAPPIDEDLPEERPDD
Description: as §1, §2, §3

5-HT4 = target: T4, 5-HT4 (Homo sapiens, UniProt Q13639); experiment: PDSP primary binding 5-HT4; details: 1.5 h; primary binding, 10,000 nM; last figure of the line = mean of the 4 before it; read-out: 5-HT4, PDSP raw data, mean
T4 construct: purchased NIMH Psychoactive Drug Screening Program (PDSP)
Description: as §1, §2, §3

Alpha4Beta2 = target: T5, Alpha4Beta2 (Rattus norvegicus, UniProt P09483+P12390); experiment: PDSP primary binding Alpha4Beta2; details: primary binding, 10,000 nM; last figure of the line = mean of the 4 before it; read-out: Alpha4Beta2, PDSP raw data, mean
T5 construct: purchased NIMH Psychoactive Drug Screening Program (PDSP)
Description: as §1, §2, §3

M1 = target: T6, M1 (Homo sapiens, UniProt P11229); experiment: PDSP primary binding M1; details: primary binding, 10,000 nM; last figure of the line = mean of the 4 before it; read-out: M1, PDSP raw data, mean
T6 construct: purchased NIMH Psychoactive Drug Screening Program (PDSP)
T6 sequence (P11229 1-460): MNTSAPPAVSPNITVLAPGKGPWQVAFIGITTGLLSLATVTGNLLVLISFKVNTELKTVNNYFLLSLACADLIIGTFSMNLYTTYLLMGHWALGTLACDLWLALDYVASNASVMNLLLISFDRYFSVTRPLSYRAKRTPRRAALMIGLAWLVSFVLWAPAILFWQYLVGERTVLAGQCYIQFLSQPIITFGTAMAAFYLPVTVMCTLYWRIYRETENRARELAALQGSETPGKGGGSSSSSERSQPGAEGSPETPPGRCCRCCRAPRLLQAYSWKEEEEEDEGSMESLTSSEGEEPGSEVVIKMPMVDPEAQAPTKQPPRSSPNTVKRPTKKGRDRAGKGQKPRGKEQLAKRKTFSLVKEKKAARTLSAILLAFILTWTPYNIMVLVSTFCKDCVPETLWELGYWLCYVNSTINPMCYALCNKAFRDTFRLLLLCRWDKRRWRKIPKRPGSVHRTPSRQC
Description: as §1, §2, §3

5-HT1A = target: T7, 5-HT1A (Homo sapiens, UniProt P08908); experiment: PDSP primary binding 5-HT1A; details: 1.5 h; primary binding, 10,000 nM; last figure of the line = mean of the 4 before it; read-out: 5-HT1A, PDSP raw data, mean
T7 construct: purchased NIMH Psychoactive Drug Screening Program (PDSP)
T7 sequence (P08908 1-422): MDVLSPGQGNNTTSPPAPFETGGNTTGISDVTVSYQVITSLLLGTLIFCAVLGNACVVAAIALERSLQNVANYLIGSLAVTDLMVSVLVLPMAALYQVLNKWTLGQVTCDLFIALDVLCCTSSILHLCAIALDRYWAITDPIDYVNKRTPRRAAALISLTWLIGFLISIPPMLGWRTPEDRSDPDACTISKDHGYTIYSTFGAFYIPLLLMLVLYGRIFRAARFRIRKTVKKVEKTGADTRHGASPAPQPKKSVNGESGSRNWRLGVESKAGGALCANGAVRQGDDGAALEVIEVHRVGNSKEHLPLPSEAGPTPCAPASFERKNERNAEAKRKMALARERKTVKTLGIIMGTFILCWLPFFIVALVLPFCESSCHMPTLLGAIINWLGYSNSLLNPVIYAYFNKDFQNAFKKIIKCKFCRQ
Description: as §1, §2, §3

Beta1 = target: T8, Beta1 (Homo sapiens, UniProt P08588); experiment: PDSP primary binding Beta1; details: 1.5 h; primary binding, 10,000 nM; last figure of the line = mean of the 4 before it; read-out: Beta1, PDSP raw data, mean
T8 construct: purchased NIMH Psychoactive Drug Screening Program (PDSP)
Description: as §1, §2, §3

D5 = target: T9, D5 (Homo sapiens, UniProt P21918); experiment: PDSP primary binding D5; details: 1.5 h; primary binding, 10,000 nM; last figure of the line = mean of the 4 before it; read-out: D5, PDSP raw data, mean
T9 construct: purchased NIMH Psychoactive Drug Screening Program (PDSP)
Description: as §1, §2, §3

T9 sequence (P21918 whole entry): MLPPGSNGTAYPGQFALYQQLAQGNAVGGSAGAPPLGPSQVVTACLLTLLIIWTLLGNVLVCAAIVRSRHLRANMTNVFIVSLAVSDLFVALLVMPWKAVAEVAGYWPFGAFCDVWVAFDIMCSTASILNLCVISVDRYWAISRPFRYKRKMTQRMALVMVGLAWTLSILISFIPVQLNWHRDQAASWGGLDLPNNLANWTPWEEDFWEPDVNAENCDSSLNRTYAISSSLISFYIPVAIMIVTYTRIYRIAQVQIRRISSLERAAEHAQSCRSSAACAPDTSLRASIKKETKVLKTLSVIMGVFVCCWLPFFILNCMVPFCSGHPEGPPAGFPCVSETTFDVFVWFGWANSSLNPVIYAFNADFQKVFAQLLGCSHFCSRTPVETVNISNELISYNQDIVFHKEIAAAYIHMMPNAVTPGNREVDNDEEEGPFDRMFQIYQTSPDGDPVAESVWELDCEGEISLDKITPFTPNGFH
T2 sequence (P21728 whole entry): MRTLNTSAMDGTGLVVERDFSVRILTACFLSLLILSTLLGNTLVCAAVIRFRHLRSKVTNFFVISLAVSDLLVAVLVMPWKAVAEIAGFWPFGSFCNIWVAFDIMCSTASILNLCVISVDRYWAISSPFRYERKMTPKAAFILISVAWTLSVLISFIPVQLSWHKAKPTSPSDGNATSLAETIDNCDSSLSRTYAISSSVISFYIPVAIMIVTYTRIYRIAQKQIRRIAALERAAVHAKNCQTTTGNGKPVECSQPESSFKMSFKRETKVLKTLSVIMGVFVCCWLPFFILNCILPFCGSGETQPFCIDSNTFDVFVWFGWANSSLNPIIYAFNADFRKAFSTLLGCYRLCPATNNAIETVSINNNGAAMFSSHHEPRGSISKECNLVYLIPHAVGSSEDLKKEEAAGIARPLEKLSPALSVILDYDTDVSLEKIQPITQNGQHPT
T5 sequence (P09483 31-630): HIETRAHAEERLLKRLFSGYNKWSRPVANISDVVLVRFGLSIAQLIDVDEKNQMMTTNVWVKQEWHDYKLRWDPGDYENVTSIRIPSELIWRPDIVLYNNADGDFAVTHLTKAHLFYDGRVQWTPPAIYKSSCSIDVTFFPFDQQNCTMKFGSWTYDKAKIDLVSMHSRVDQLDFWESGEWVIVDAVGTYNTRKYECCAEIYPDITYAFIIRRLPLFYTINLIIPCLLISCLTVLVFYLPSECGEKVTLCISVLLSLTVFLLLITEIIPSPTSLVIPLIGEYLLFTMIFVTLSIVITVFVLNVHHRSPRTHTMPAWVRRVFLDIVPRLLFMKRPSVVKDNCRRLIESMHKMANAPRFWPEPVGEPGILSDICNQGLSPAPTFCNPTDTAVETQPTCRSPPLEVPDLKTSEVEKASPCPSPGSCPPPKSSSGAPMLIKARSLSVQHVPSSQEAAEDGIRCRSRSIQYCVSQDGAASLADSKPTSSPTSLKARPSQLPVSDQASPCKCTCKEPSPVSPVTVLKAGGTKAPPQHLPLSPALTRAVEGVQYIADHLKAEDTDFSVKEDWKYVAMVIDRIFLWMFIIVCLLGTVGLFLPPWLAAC
T5 sequence (P12390 25-500): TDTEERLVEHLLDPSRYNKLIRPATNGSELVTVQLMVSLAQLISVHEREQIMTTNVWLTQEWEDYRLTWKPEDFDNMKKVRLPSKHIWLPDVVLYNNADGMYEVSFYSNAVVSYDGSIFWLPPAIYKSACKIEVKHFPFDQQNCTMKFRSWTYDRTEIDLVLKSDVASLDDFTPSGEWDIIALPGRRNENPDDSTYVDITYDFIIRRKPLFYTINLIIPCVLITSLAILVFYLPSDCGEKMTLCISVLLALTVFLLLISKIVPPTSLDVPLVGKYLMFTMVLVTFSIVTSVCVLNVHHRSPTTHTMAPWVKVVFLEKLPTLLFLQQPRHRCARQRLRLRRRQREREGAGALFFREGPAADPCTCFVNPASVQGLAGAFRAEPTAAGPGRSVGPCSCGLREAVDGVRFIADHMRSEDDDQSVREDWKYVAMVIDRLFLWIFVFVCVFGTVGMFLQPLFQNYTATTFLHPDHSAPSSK
T8 sequence (P08588 whole entry): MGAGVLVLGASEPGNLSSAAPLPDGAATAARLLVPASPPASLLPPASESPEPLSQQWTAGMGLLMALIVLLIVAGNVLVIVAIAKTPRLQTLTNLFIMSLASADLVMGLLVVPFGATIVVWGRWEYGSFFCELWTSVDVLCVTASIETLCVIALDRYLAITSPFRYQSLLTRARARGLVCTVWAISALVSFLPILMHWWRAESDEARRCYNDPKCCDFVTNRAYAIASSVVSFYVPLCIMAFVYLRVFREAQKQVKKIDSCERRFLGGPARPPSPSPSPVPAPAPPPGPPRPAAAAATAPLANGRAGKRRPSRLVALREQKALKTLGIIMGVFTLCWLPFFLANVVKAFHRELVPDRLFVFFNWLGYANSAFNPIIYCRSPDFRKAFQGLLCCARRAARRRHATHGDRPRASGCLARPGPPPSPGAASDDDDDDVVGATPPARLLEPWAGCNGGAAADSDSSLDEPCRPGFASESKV
T1 sequence (P13945 whole entry): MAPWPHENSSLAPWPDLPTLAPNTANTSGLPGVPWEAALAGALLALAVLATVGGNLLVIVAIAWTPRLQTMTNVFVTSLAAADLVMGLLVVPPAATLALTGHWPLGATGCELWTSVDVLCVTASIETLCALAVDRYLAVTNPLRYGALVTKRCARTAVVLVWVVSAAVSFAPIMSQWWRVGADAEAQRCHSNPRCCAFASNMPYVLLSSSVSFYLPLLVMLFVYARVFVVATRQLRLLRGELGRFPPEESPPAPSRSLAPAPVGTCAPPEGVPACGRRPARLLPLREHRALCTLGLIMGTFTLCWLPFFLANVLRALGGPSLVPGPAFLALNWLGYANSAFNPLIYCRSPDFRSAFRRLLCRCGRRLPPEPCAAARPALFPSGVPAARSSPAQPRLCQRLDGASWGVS
T4 sequence (Q13639 whole entry): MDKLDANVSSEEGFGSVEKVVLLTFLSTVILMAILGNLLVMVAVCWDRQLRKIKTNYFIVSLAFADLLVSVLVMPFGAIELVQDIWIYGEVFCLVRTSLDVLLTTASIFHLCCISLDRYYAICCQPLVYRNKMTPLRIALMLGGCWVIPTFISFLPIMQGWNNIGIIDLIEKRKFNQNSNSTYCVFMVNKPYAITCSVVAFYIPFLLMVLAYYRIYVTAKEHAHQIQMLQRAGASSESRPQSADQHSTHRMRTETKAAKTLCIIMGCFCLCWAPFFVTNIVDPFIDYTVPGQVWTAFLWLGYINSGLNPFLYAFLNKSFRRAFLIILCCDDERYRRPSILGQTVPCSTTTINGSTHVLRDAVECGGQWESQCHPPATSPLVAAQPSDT

Compound | inhibition at 10 µM (Beta3) [%] | inhibition at 10 µM (D1) [%] | inhibition at 10 µM (A1) [%] | inhibition at 10 µM (5-HT4) [%] | inhibition at 10 µM (Alpha4Beta2) [%] | inhibition at 10 µM (M1) [%] | inhibition at 10 µM (5-HT1A) [%] | inhibition at 10 µM (Beta1) [%] | inhibition at 10 µM (D5) [%]
CCc1noc(-c2ncn3c2CN=C(c2ccccc2F)c2cc(C4CC4)ccc2-3)n1 [Compound 44, 5-(8-Cyclopropyl-6-(2′-fluorophenyl)-4H-benzo[f]imidazo[1,5-a][1,4]diazepin-3-yl)-3-ethyl-1,2,4-oxadiazole] | -4.01 | 49.6 | 48.2 | -9.26 | -1.95 | 9.28 | 36.1 | -5.19 | 9.06
CCc1noc(-c2ncn3c2[C@@H](C)N=C(c2ccccc2F)c2cc(C4CC4)ccc2-3)n1 [Compound 46, (R)-5-(8-Cyclopropyl-6-(2′-fluorophenyl)-4-methyl-4H-benzo[f]imidazo[1,5-a][1,4]diazepin-3-yl)-3-ethyl-1,2,4-oxadiazole] | 31.1 | 74.6 | 30.9 | 3.05 | 4.59 | 0.86 | 17.8 | -26.4 | 51.2
